Converted amounts (≈) assume the structure as drawn. Read-outs that look alike come from different tables or passages of the source.
Experiments:
[1] = target: Isoleucyl-tRNA synthetase (IleRS) (Escherichia coli (strain K12), UniProt P00956); experiment: Isoleucyl-tRNA synthetase enzyme inhibition (AMP-Glo; single point % inhibition at 100 μM and IC50); assay type: biochemical
From the text: Study 1—Enzyme Inhibition
The aminoacylation reaction catalyzed by aminoacyl-tRNA synthetases (aaRS) takes place in two steps. In the first step, aaRS activates its cognate amino acid with ATP; and in the second step the activated amino acid is loaded to its corresponding tRNA. This reaction can be summarized as follows: aaRS+aa+ATP=aaRS-aa-AMP+PPi aaRS-aa-AMP+tRNA=aa-tRNA+AMP+aaRS […]
wherein: aaRS, aminoacyl-tRNA synthetase; aa, amino acid; aaRS-aa-AMP, enzyme-bound to aminoacyl-adenylate; AMP, adenosine monophosphate; aa-tRNA, aminoacyl-tRNA, PPi, inorganic pyrophosphate.
Isoleucyl-tRNA Synthetase a. Single Point Percentage Inhibition
The activity of the pathogenic aaRSs was monitored by measuring AMP production using the commercial kit AMP-Glo (Promega, Madison, USA).
Ligand stock solutions were prepared in 100% DMSO at 10 mM concentration. An assay buffer consisting of 100 mM Tris HCl pH 7.6, 40 mM MgCl, 20 mM KCl and 150 mM NaCl was prepared in dH2O. An enzyme solution containing 51.77 μM IleRS was prepared in assay buffer to provide 30 nM final assay concentration and 75 nM reservoir concentration for a 1:2.5 dilution in the assay. A substrate solution was also prepared in assay buffer with 50 mM L-isoleucine, 10 mM ATP and 100 mg/mL tRNA. A final assay concentration of 500 μM L-isoleucine, 5 μM ATP and 1 mg/mL tRNA and reservoir concentration of 833.33 μM L-isoleucine, 8.33 μM ATP and 1.67 mg/mL tRNA was used for a 1:1.66 dilution in assay.
Enzyme percentage inhibition values were recorded in triplicate at a single point concentration of 100 μM.
Using the same enzymatic assay in a 384-well plate format, ten point concentration response curves were generated for each compound using a top concentration of 100 μM. The known inhibitor, IleAMS was used as a positive control for the IleRS assay. 100% DMSO was used as a negative control. The IC50 was calculated based on non-linear regression analysis.

[2] = system: bacteria (ATCC reference strains); experiment: Antibacterial activity, MIC by broth micro-dilution (CLSI)
[3] = Human cell viability / cytotoxicity (CellTiter-Glo, 24 hours); assay type: cell-based; details: human, HepG2 cells (ATCC HB-8065); HepG2 ATCC HB-8065, 24 hours; read-out: Cytotoxicity in HepG2 ATCC HB-8065 Cell Line, IC50
Protocol: Study 3—Human Cell Viability
Compounds were assessed for potential non-specific cytotoxic effects against a human hepatic cell line (HepG2 ATCC HB-8065). 96-well plates were seeded with HepG2 cells in concentration of 15,000 cells per well in 100 μL of MEM growth media completed with 1% NEAA and 1% sodium pyruvate. Border wells were filled with 100 μL of sterile PBS. Two days upon cells incubation, the compounds were added. Compound dilutions were prepared in 96-well V-bottom plate in pure DMSO. Growth media from 5 plates were aspirated and replaced with 98.7 μL of fresh growth media. 1.28 μL of compounds prepared in V-bottom plates were transferred with multichannel pipette into test plates (78.1× dilution). Final DMSO concentration was 1.28% per well. In control wells, 1.28 μL of DMSO was added in 98.7 μL of media. Compounds were tested in duplicates. Cells were incubated with compounds for 24 hours when cell viability was assessed by measuring ATP levels. ATP levels were measured by adding 50 μL of CellTiter-Glo reagent to each well and after 5 minutes of incubation luminescence was measured with SpectraMax i3. The potential effect of tested compounds on cell viability was determined by comparing the signal obtained in presence of different concentrations of the compounds with those obtained in the presence of DMSO only. The potential effects were then calculated and presented as IC50 values (μg/mL).

[4] = E. coli IleRS, read-out: Enzyme Inhibition - IC50, E. coli IleRS
[5] = Acinetobacter baumannii, read-out: Antibacterial Activity (MIC), E = A. baumannii B1931
[6] = Enterobacter cloacae, read-out: Antibacterial Activity (MIC), B = Enterobacter cloacae B1966
[7] = Escherichia coli, ATCC25922, read-out: Antibacterial Activity (MIC), A = E. coli ATCC 25922
[8] = Haemophilus influenzae, ATCC49247, read-out: Antibacterial Activity (MIC), F = H. influenzae ATCC 49247
[9] = Klebsiella pneumoniae, ATCC700603, read-out: Antibacterial Activity (MIC), C = K. pneumoniae ATCC 700603
[10] = Pseudomonas aeruginosa, ATCC27853, read-out: Antibacterial Activity (MIC), D = P. aeruginosa ATCC 27853

Chain of Isoleucyl-tRNA synthetase (IleRS) (P00956 whole entry, looked up): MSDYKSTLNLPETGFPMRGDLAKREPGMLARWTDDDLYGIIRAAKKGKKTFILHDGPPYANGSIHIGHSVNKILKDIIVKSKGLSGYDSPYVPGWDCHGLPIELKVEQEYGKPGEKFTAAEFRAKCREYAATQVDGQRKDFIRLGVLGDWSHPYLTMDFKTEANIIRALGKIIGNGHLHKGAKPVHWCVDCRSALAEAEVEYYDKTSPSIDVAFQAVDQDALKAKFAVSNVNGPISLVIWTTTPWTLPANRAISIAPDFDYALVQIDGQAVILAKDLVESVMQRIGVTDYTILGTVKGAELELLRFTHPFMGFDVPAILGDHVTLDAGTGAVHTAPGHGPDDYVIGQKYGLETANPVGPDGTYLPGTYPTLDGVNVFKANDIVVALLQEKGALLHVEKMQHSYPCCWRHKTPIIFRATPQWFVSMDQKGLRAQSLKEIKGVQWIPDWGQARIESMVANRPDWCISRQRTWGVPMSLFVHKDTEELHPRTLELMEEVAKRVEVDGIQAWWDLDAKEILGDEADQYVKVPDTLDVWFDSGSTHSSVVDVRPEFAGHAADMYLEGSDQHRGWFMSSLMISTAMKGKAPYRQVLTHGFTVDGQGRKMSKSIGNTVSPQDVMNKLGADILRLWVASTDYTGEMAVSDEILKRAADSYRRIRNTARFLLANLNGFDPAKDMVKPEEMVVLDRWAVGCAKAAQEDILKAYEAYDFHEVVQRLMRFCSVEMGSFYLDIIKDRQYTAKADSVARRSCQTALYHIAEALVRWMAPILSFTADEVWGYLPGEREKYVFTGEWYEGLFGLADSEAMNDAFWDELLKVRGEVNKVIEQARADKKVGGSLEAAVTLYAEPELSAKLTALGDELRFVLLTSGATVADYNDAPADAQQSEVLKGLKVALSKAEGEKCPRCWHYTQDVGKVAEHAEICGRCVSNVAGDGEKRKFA

CC[C@H](C)[C@H](N)C(=O)N=[S@](N)(=O)c1cccs1 (single isomer, unassigned) [ANASIA-028-1]
IC50 [1, 4]: 46.5 µM

CC[C@H](C)[C@H](N)C(=O)N=[S@](N)(=O)c1ccc(Cl)s1 [ANASIA-029-1]
IC50 [1, 4]: 67.4 µM

CC[C@H](C)[C@H](N)C(=O)N=[S@@](N)(=O)c1ccc(Cl)s1.Cl [ANASIA-029-2]
IC50 [1, 4]: 4.59 µM | MIC [2, 5]: > 64 µg/mL | MIC [2, 6]: > 64 µg/mL | MIC [2, 7]: 64 µg/mL | MIC [2, 8]: 16 µg/mL | MIC [2, 9]: > 64 µg/mL | MIC [2, 10]: > 64 µg/mL | IC50 at 24 h [3]: > 64 µg/mL

CC[C@H](C)[C@H](N)C(=O)N=[S@@](N)(=O)c1ccc(C)s1.Cl [ANASIA-031-2]
IC50 [1, 4]: 2.65 µM | MIC [2, 5]: > 64 µg/mL | MIC [2, 6]: 64 µg/mL | MIC [2, 7]: 64 µg/mL | MIC [2, 8]: 16 µg/mL | MIC [2, 9]: > 64 µg/mL | MIC [2, 10]: > 64 µg/mL | IC50 at 24 h [3]: > 64 µg/mL

CC[C@H](C)[C@H](N)C(=O)N=S(N)(=O)c1ccc(C)s1 (stereo partly drawn) [ANASIA-031]
IC50 [1, 4]: 6.7 µM | MIC [2, 5]: > 64 µg/mL | MIC [2, 6]: > 64 µg/mL | MIC [2, 7]: > 64 µg/mL | MIC [2, 8]: 64 µg/mL (≈ 221 µM) | MIC [2, 9]: > 64 µg/mL | MIC [2, 10]: > 64 µg/mL | IC50 at 24 h [3]: > 64 µg/mL

CC[C@H](C)[C@H](N)C(=O)N=[S@](N)(=O)c1cccc(-c2ccccc2)c1 [ANASIA-032-1]
IC50 [1, 4]: 50.8 µM

CC[C@H](C)[C@H](N)C(=O)N=[S@](N)(=O)c1cccc(Cl)c1 [ANASIA-033-1]
IC50 [1, 4]: 67.6 µM

CC[C@H](C)[C@H](N)C(=O)N=[S@](N)(=O)c1ccc(C)cc1.Cl [ANASIA-034-1]
IC50 [1]: 14.7 µM | MIC [2, 5]: > 64 µg/mL | MIC [2, 6]: > 64 µg/mL | MIC [2, 7]: > 64 µg/mL | MIC [2, 8]: 64 µg/mL | MIC [2, 9]: > 64 µg/mL | MIC [2, 10]: > 64 µg/mL | IC50 at 24 h [3]: > 64 µg/mL

CC[C@H](C)[C@H](N)C(=O)N=[S@](N)(=O)c1ccc(Cl)cc1 [ANASIA-035-1]
IC50 [1]: 18.3 µM | IC50 at 24 h [3]: > 64 µg/mL

CC[C@H](C)[C@H](N)C(=O)N=[S@](N)(=O)c1ccc(Cl)c(Cl)c1 [ANASIA-036-1]
IC50 [1]: 7.86 µM | IC50 at 24 h [3]: > 64 µg/mL

CC[C@H](C)[C@H](N)C(=O)N=[S@@](N)(=O)c1ccc(Cl)c(Cl)c1 [ANASIA-036-2]
IC50 [1, 4]: 30.6 µM

CC[C@H](C)[C@H](N)C(=O)N=[S@](N)(=O)c1cccc(Oc2ccc(Cl)cc2)c1 [ANASIA-052-1]
IC50 [1]: 37.7 µM | IC50 at 24 h [3]: > 64 µg/mL

CC[C@H](C)[C@H](N)C(=O)N=[S@@](N)(=O)c1cccc(Oc2ccc(Cl)cc2)c1 [ANASIA-052-2]
IC50 [1, 4]: 40.1 µM

CC[C@H](C)[C@H](N)C(=O)N=[S@@](N)(=O)c1ccc2c(c1)CCO2 [ANASIA-053-1]
IC50 [1, 4]: 20.2 µM

CC[C@H](C)[C@H](N)C(=O)N=[S@](N)(=O)c1ccc2cccnc2c1 [ANASIA-054-1]
IC50 [1, 4]: 83.7 µM

CC[C@H](C)[C@H](N)C(=O)N=[S@@](N)(=O)c1ccc2cccnc2c1 [ANASIA-054-2]
IC50 [1, 4]: 19.9 µM

CC[C@H](C)[C@H](N)C(=O)N=[S@](N)(=O)c1ccc(OC)cc1 [ANASIA-055-1]
IC50 [1, 4]: 35.1 µM

CC[C@H](C)[C@H](N)C(=O)N=[S@](N)(=O)c1cccc(C(C)(C)C)c1 [ANASIA-056-1]
IC50 [1, 4]: 84 µM

CC[C@H](C)[C@H](N)C(=O)N=[S@](N)(=O)c1csc2ccccc12 [ANASIA-057-1]
IC50 [1, 4]: 27.5 µM

CC[C@H](C)[C@H](N)C(=O)N=S(N)(=O)c1nc(Cl)cs1 (stereo partly drawn) [ANASIA-058]
IC50 [1, 4]: 58.6 µM
